Entries after “also recorded” stand apart in the source; their conditions may differ. Like-named read-outs stand apart in the source and are kept apart here.
Experiments:
[1] = Fraction unbound in plasma and brain (FUplasma, FUbrain)
[2] = test system: simulated driving performance; assay: Computer-based driving simulator study in healthy volunteers
patients with migraine [3] = assay: GLADIATOR open-label Phase 3 study, long-term intermittent lasmiditan; MIDAS interim analysis; format: in vivo, human; conditions: for change in MIDAS migraine disability, headache days and headache pain/severity over time: lasmiditan 100 mg or 200 mg, up to 12 months
Protocol: The placebo-controlled Phase 3 studies SAMURAI (NCT02439320) and SPARTAN (NCT02605174) evaluated lasmiditan 50 mg [SPARTAN only], 100 mg and 200 mg. […] GLADIATOR (NCT02565186) is a prospective randomized open-label Phase 3 study to evaluate long-term intermittent use of lasmiditan (100 mg or 200 mg) for acute treatment of migraine. An interim analysis of the effects of lasmiditan on migraine disability assessed with the MIDAS scale in GLADIATOR is described below, and has provided surprising and unexpected evidence of persistent beneficial effects in migraine patients.
Patients who completed SAMURAI or SPARTAN were offered participation in GLADIATOR with randomization to lasmiditan 100 mg or lasmiditan 200 mg which represents an uncontrolled, open-label study. […] This interim analysis includes patients with MIDAS score data at baseline of GLADIATOR and post-baseline assessments. The analysis presented is based on the MIDAS questionnaire administered at baseline and at months 3, 6, 9 and 12. An additional analysis was also conducted in the subgroup of patients who completed 12 months. Changes were modelled using a mixed model repeated measures analysis MIDAS measures lost time due to migraine in days over 3 months. Domains included are activity limitations at work, household work or family, social and leisure activity.
Key inclusion criteria were patients who were eligible for SAMURAI or SPARTAN and had at least moderate migraine disability (MIDAS score ≥11). Patients were randomized 1:1 for acute treatment of migraine with either lasmiditan 100 mg for up to 12 months, or lasmiditan 200 mg for up to 12 months. Patients used lasmiditan as the first treatment for each new migraine attack (≤4 hours of Migraine pain onset). […] Assessments of safety and efficacy were conducted, including MIDAS questionnaires at baseline and months 3, 6, 9 and 12. MIDAS Questionnaire (See for example Stewart et al., Neurology 1999; 53:988-94, Stewart et al., Neurology 2001; 56: S20-8) The sum of Questions 1-5 below represents the Total MIDAS score. • 1. […]

patients with migraine [4] = conditions: cited from earlier work; for pain freedom (primary) and MBS freedom (key secondary) at 2 hours vs placebo: Phase 3 trials, all doses (50, 100, 200 mg); for proportion of patients headache pain-free / proportion of patients most bothersome symptom (MBS)-free: lasmiditan 200 mg, 2 hours post-first dose, p<0.001

CN1CCC(C(=O)c2cccc(NC(=O)c3c(F)cc(F)cc3F)n2)CC1 [Lasmiditan, 2,4,6-trifluoro-N-[6-(1-methyl-piperidin-4-ylcarbonyl)-pyridin-2-yl]-benzamide]
FUbrain ([1]; brain): FUbrain = 0.117,
FUplasma ([1]; plasma): FUplasma = 0.459,
time by which impaired simulated driving performance resolved ([2]; after dosing): ≤ 8 h
driving impairment / simulated driving performance ([2]; all doses, acute treatment): impair simulated driving performance in a dose-dependent manner; also recorded: associated with driving impairment
difference between lasmiditan 100 mg and 200 mg doses, any outcome (patients with migraine [3]; GLADIATOR MIDAS outcomes): no significant differences
change in MIDAS migraine disability, headache days and headache pain/severity over time (patients with migraine [3]): decreases over time
change in MIDAS migraine disability, headache days and headache pain/severity over time (patients with migraine [3]; listed as lasmiditan): large, clinically meaningful improvement; also recorded: a decrease over the 12-month treatment period
most frequently reported / most common TEAEs (patients with migraine [4]; Phase 3 studies, b6: ≥2% and greater than placebo after the first dose): dizziness, paresthesia, somnolence, fatigue, and nausea
severity of TEAEs (patients with migraine [4]; Phase 3 studies): mild or moderate
pain freedom (primary) and MBS freedom (key secondary) at 2 hours vs placebo (patients with migraine [4]): statistically significant superiority over placebo
pain freedom (primary) and MBS freedom (key secondary) at 2 hours vs placebo (patients with migraine [4]; listed as lasmiditan): significantly higher rates
proportion of patients headache pain-free (patients with migraine [4]; SAMURAI, placebo 15.3%): 32.2%
proportion of patients most bothersome symptom (MBS)-free (patients with migraine [4]; SAMURAI, placebo 29.5%): 40.7%
proportion of patients headache pain-free (patients with migraine [4]; SPARTAN, placebo 21.3%): 38.8%
proportion of patients most bothersome symptom (MBS)-free (patients with migraine [4]; SPARTAN, placebo 33.5%): 48.7%
headache pain-free and MBS-free at 2 hours compared to placebo (patients with migraine [4]; lasmiditan 100 mg, 50 mg dose groups): significance was also noted

From patent US12138254B2, “Chronic nightly dosing of lasmiditan for migraine prevention” (Eli Lilly and Company, priority 2018, dated 2024)
